Tests used:
[1] = test system: ICR (Institute of Cancer Research) mouse; assay: Analgesic test (acetic acid-induced stretchings); type: in vivo; details: oral, 100 mg/kg
Procedure: Male ICR (Institute of Cancer Research) mouse with body weight of about 20 to 30 g were tested wherein each group had 6 mouses. After 1 hour of the oral administration of a test compound, acetic acid (in distilled water) was abdominally administered. For the duration of 10 minutes, the animals were observed regarding the number of stretchings and the number was compared with that of placebo treated group and the result is shown in the following table 7.

[2] = test system: ICR (Institute of Cancer Research) mouse; assay: Arachidonic acid-induced ear edema test; type: in vivo; details: oral, 100 mg/kg
Procedure: (§1) Male ICR (Institute of Cancer Research) mouse with body weight of about 20 to 30 g were tested wherein each group had 6 mouses. After 1 hour of the oral administration of a test compound, Arachidonic acid (in acetone solution) was coated on one of the ears. After 1 hour, the thickness of the swollen ear in treated group was compared with the other unswollen ear and obtained the average increase rate in thickness of ear by the treatment.

[3] = test system: ICR (Institute of Cancer Research) mouse; assay: Croton oil-induced ear edema test; type: in vivo; details: oral, 100 mg/kg
Procedure: as §1, with “Croton oil” for “Arachidonic acid”, “4 hours,” for “1 hour,”

[4] = test system: TNF-α; assay: Cytokine inhibitory activity in animal model (LPS-treated SD rats), plasma TNF-α; type: in vivo, Sprague Dawley (SD) rats; details: for TNF-α Inhibition Rate (Conc.) / inhibition in vivo at 40 mg/kg: SD rats, oral, LPS, 40 mg/kg; for inhibitory activity on production of TNF-α compared to Indomethacin: rat model, in words; for inhibition in vivo at 40 mg/kg: Rattus norvegicus, 2 h, read-out: TNF-α Inhibition Rate (Conc.)
Procedure: Sprague Dawley (SD) rats with body weights of about 180 to about 200 g were fasted (free drinking) and then tested. Test compounds were administered orally at 40 mg/kg and then abdominally administered with LPS 1 μg/mL after 1 hour. After 2 hours, the rats were sacrificed and bloods were collected from abdominal vein, stored at room temperature for about 2 hours, and then centrifuged at 12,000 rpm for about 2 minutes. Thus produced plasma was respectively collected and its TNF-α in each plasma was quantitated using mouse TNF-α ELISA kit based on the amount of recombinant TNF-α in rats. The plate used was coated with anti-rat TNF-α monoclone IgG antibodies. Likewise, for the test of IL-1α, IL-1α in each plasma was quantitated using the above plasma and mouse IL-1α ELISA kit based on the amount of recombinant IL-1α in rats. The plate used was coated with anti-rat IL-1α monoclone IgG antibodies. Further, for the test of IL-6, IL-6 in each plasma was quantitated using the above plasma and mouse IL-6 ELISA kit based on the amount of recombinant IL-6 in rats. Further, for the test of INF-γ, INF-γ in each plasma was quantitated using the above plasma and mouse INF-γ ELISA kit based on the amount of recombinant INF-γ in rats. The plate used was coated with anti-rat INF-γ monoclone IgG antibodies. From the above tests, inhibitory rates on the expression of each cytokine were obtained and they were compared to that of Indomethacin.

[5] = test system: TNF-α; assay: Cytokine inhibitory activity in cells: LPS-induced TNF-α in RAW 264.7; type: cell-based, murine; details: for TNF-α Inhibition Rate (%) / inhibition at 1 µM / inhibition at 10 µM / inhibition at 100 µM / inhibition at 1000 µM: RAW 264.7, LPS 1 μg/mL; for inhibition at 1 µM / inhibition at 10 µM / inhibition at 100 µM / inhibition at 1000 µM: Mus musculus, RAW264.7, read-out: TNF-α Inhibition Rate (%); for inhibitory activity in RAW 264.7 cell line on the production of TNF-α, in words: compared to the control compounds
Procedure: General reagents used were purchased from Sigma-Aldrich chem. Co. and cytokine inhibitory activities were tested as follows. Mediums and reagents used in cell culture were purchased from GIBCO BRL (USA), and mouse TNF-α ELISA kit was purchased from R&D system (USA). The apparatus used ELISA reader (Spectra max-Plus 384, Molecular Device, USA).
Murine macrophage cell line RAW 264.7 was kindly provided by Korean Tissue Culture Center (KTCC). The cell line was cultured in DMEM medium containing 10% FBS, in a cell culturing device at the condition of 37° C., 5% CO2. First, murine RAW 264.7 was cultured in DMEM medium containing 10% FBS for about 24 hours, and cells were planted 200 μL each in 96 well plates at the concentration of 5×10^5/mL and cultured for about 24 hours. Then, test compounds were treated at various concentrations and then reacted at 37° C. for about 1 hour, wherein 1 μg/mL of lipopolysaccharide (LPS) was added thereto and reacted at 37° C. for about 12 hours. The supernatant was recovered and the amount of murine TNF-α on the medium was quantitated using ELISA kit. Thalidomide was respectively used as a positive and a negative control to compare the activities and the results are shown in the following tables 4a -4c.

SMILES	Inhibition Rate (%) [1]	Inhibition Rate (%) [2]	Inhibition Rate (%) [3]	TNF-α Inhibition Rate (Conc.) [4]	inhibitory activity on production of TNF-α compared to Indomethacin [4]	TNF-α Inhibition Rate (%) ([5]; test conc. 1 μM)	TNF-α Inhibition Rate (%) ([5]; test conc. 10 μM)	TNF-α Inhibition Rate (%) ([5]; test conc. 100 μM)	TNF-α Inhibition Rate (%) ([5]; test conc. 1 mM)	inhibition in vivo at 40 mg/kg [4]	inhibition at 1 µM ([5]; test conc. 1 μM)	inhibition at 10 µM ([5]; test conc. 10 μM)	inhibition at 100 µM ([5]; test conc. 100 μM)	inhibition at 1000 µM ([5]; test conc. 1 mM)	inhibitory activity in RAW 264.7 cell line on the production of TNF-α, in words [5]
Cc1ccc(-c2cc(C(F)(F)F)nn2-c2ccc(S(N)(=O)=O)cc2)cc1 [Celecoxib, reference compound]	81%	33%	35%												
CC(=O)Oc1nc(C)cc2c1C(=O)OCC2 [Ex. 21, 6-methyl-1-oxo-3,4-dihydro-1H-pyrano[3,4-c]pyridine-8-yl acetic ester]				93% (40 mg/kg)	1.5 or 2 times greater	9%	15%	34%	77%						
Cc1cc2c(c(-c3ccc(F)cc3)n1)C(=O)OCC2 [Ex. 30, 8-(4-fluorophenyl)-6-methyl-3,4-dihydro-pyrano[3,4-c]pyridine-1-on]					1.5 or 2 times greater					79%	100%	100%	100%	100%	superiorities over to the control compounds
Cc1cc2c(c(N3CCCCC3)n1)C(=O)OCC2 [Ex. 32, 6-methyl-8-piperidine-1-yl-3,4-dihydro-pyrano[3,4-c]pyridine-1-on]					1.5 or 2 times greater					74%	69%	78%	89%	100%	
Cc1cc2c(c(N3CCOCC3)n1)C(=O)OCC2 [Ex. 33, 6-methyl-8-morpholine-4-yl-3,4-dihydro-pyrano[3,4-c]pyridine-1-on]					1.5 or 2 times greater					90%		9%	18%	29%	
Cc1cc2c(c(N)n1)C(=O)OCC2 [Ex. 53, 8-amino-6-methyl-3,4-dihydro-pyrano[3,4-c]pyridine-1-on]										53%	85%	100%	100%	100%	superiorities over to the control compounds
Cc1nc(-c2ccccc2)cc2c1C(=O)OCC2 [Ex. 77, 8-methyl-6-phenyl-3,4-dihydro-pyrano[3,4-c]pyridine-1-on]										66%	68%	76%	89%	100%	superiorities over to the control compounds
CC(=O)Oc1nc(-c2ccccc2)cc2c1C(=O)OCC2 [Ex. 78, 1-oxo-6phenyl-3,4-dihydro-1H-pyrano[3,4-c]pyridine-8-yl acetic ester]				68% (40 mg/kg)		79%	85%	98%	100%						superiorities over to the control compounds

From patent publication US7601736B2, “Pyridine derivatives, a process for their preparation and a pharmaceutical composition containing the same” (SK Chemicals Co., Ltd., priority 2003, dated 2009)
